Key:
[1] = tested on: Hepatotoxicity;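 for HepSE Combined Scores: combined hepatic side effect score as listed in the training data of the Drug Induced Liver Injury Prediction System (DILIps)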;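 for HepSE cholelithiasis: hepatic side effect score for cholelithiasis, drawn from the DILIps training data for predicting drug-induced liver injury; call rule not given here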;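 for HepSE cirrhosis: cirrhosis hepatic side effect score taken from the DILIps (drug-induced liver injury prediction) training set; call rule not given here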;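 for HepSE hepatic necrosis: score of hepatic side effects for hepatic necrosis, drawn from the training data of DILIps, a prediction system for drug-induced liver injury; call rule not given here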;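 for HepSE hepatomegaly: hepatic side effect score for hepatomegaly, taken from the training set of the DILIps drug-induced liver injury prediction system; call rule not given here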;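 for HepSE jaundice: Jaundice-related hepatic side-effect score drawn from the training data of the DILIps (drug-induced liver injury prediction system); call rule not given here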
[2] = tested on: Hepatotoxicity; remark: listed apart in the source;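 for HepSE Combined Scores: combined hepatic side effect score as listed in the training data of the Drug Induced Liver Injury Prediction System (DILIps)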;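 for HepSE cholelithiasis: hepatic side effect score for cholelithiasis, drawn from the DILIps training data for predicting drug-induced liver injury; call rule not given here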;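 for HepSE cirrhosis: cirrhosis hepatic side effect score taken from the DILIps (drug-induced liver injury prediction) training set; call rule not given here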;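 for HepSE hepatic necrosis: score of hepatic side effects for hepatic necrosis, drawn from the training data of DILIps, a prediction system for drug-induced liver injury; call rule not given here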;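 for HepSE hepatomegaly: hepatic side effect score for hepatomegaly, taken from the training set of the DILIps drug-induced liver injury prediction system; call rule not given here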;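 for HepSE jaundice: Jaundice-related hepatic side-effect score drawn from the training data of the DILIps (drug-induced liver injury prediction system); call rule not given here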
[3] = tested on: Hepatotoxicity; remark: listed apart in the source;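 for HepSE Combined Scores: combined hepatic side effect score as listed in the training data of the Drug Induced Liver Injury Prediction System (DILIps)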;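 for HepSE cholelithiasis: hepatic side effect score for cholelithiasis, drawn from the DILIps training data for predicting drug-induced liver injury; call rule not given here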;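 for HepSE cirrhosis: cirrhosis hepatic side effect score taken from the DILIps (drug-induced liver injury prediction) training set; call rule not given here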;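 for HepSE hepatic necrosis: score of hepatic side effects for hepatic necrosis, drawn from the training data of DILIps, a prediction system for drug-induced liver injury; call rule not given here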;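 for HepSE hepatomegaly: hepatic side effect score for hepatomegaly, taken from the training set of the DILIps drug-induced liver injury prediction system; call rule not given here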;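 for HepSE jaundice: Jaundice-related hepatic side-effect score drawn from the training data of the DILIps (drug-induced liver injury prediction system); call rule not given here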
[4] = tested on: Hepatotoxicity; remark: listed apart in the source;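 for HepSE Combined Scores: combined hepatic side effect score as listed in the training data of the Drug Induced Liver Injury Prediction System (DILIps)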;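 for HepSE cirrhosis: cirrhosis hepatic side effect score taken from the DILIps (drug-induced liver injury prediction) training set; call rule not given here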;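 for HepSE hepatic necrosis: score of hepatic side effects for hepatic necrosis, drawn from the training data of DILIps, a prediction system for drug-induced liver injury; call rule not given here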;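 for HepSE hepatomegaly: hepatic side effect score for hepatomegaly, taken from the training set of the DILIps drug-induced liver injury prediction system; call rule not given here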;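 for HepSE jaundice: Jaundice-related hepatic side-effect score drawn from the training data of the DILIps (drug-induced liver injury prediction system); call rule not given here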
[5] = tested on: Hepatotoxicity; remark: listed apart in the source
[6] = tested on: Hepatotoxicity; remark: listed apart in the source
[7] = tested on: Hepatotoxicity; remark: listed apart in the source
[8] = tested on: Hepatotoxicity; remark: listed apart in the source
[9] = tested on: Hepatotoxicity; remark: listed apart in the source
[10] = tested on: Hepatotoxicity; remark: listed apart in the source
[11] = tested on: Hepatotoxicity; remark: listed apart in the source
[12] = tested on: Hepatotoxicity; remark: listed apart in the source
[13] = tested on: Hepatotoxicity; remark: listed apart in the source
[14] = tested on: Hepatotoxicity; remark: listed apart in the source

| Compound | HepSE_jaundice [1] | HepSE_hepatic necrosis [2] | HepSE_hepatomegaly [3] | HepSE_Combined Scores [4] | HepSE_cirrhosis [5] | HepSE_cholelithiasis [6] | HepSE_liver disease [7] | HepSE_liver function tests abnormal [8] | HepSE_cholecystitis [9] | HepSE_liver fatty [10] | HepSE_hepatitis [11] | HepSE_hepatic failure [12] | HepSE_elevated liver function tests [13] | HepSE_bilirubinemia [14] |
| --- | --- | --- | --- | --- | --- | --- | --- | --- | --- | --- | --- | --- | --- | --- |
| CCOc1ccccc1OCCN[C@H](C)Cc1ccc(OC)c(S(N)(=O)=O)c1 [TAMSULOSIN] | 0 | 0 | 0 | 0 | 0 | 0 | 0 | 0 | 0 | 0 | 0 | 0 | 0 | 0 |
| Nc1cccc2c1CN(C1CCC(=O)NC1=O)C2=O (configuration not stated) [LENALIDOMIDE] | 0 | 0 | 0 | 4 | 0 | 0 | 0 | 1 | 1 | 0 | 0 | 1 | 0 | 1 |
| Nc1ncnc2c1ncn2[C@@H]1O[C@H](CO)[C@@H](O)[C@H]1O [ADENOSINE] | 0 | 0 | 0 | 0 | 0 | 0 | 0 | 0 | 0 | 0 | 0 | 0 | 0 | 0 |
| CCCN(CCC)S(=O)(=O)c1ccc(C(=O)O)cc1 [PROBENECID] | 0 | 1 | 0 | 1 | 0 | 0 | 0 | 0 | 0 | 0 | 0 | 0 | 0 | 0 |
| CCCCc1ncc(/C=C(\Cc2cccs2)C(=O)O)n1Cc1ccc(C(=O)O)cc1 [EPROSARTAN] | 0 | 0 | 0 | 0 | 0 | 0 | 0 | 0 | 0 | 0 | 0 | 0 | 0 | 0 |
| C[C@H]1O[C@@H](O[C@H]2[C@@H](O)C[C@H](O[C@H]3[C@@H](O)C[C@H](O[C@H]4CC[C@@]5(C)[C@H](CC[C@@H]6[C@@H]5C[C@@H](O)[C@]5(C)[C@@H](C7=CC(=O)OC7)CC[C@]65O)C4)O[C@@H]3C)O[C@@H]2C)C[C@H](O)[C@@H]1O [DIGOXIN] | 0 | 0 | 0 | 0 | 0 | 0 | 0 | 0 | 0 | 0 | 0 | 0 | 0 | 0 |
| CCN1CCN(C(=O)N[C@@H](C(=O)N[C@@H]2C(=O)N3[C@@H]2SC(C)(C)[C@@H]3C(=O)O)c2ccccc2)C(=O)C1=O [PIPERACILLIN] | 0 | 0 | 0 | 3 | 0 | 0 | 1 | 0 | 0 | 0 | 1 | 0 | 0 | 1 |
| CCCCC(=O)OCC(=O)[C@]1(O)Cc2c(O)c3c(c(O)c2[C@@H](O[C@H]2C[C@H](NC(=O)C(F)(F)F)[C@H](O)[C@H](C)O2)C1)C(=O)c1c(OC)cccc1C3=O [VALRUBICIN] | 0 | 0 | 0 | 0 | 0 | 0 | 0 | 0 | 0 | 0 | 0 | 0 | 0 | 0 |
| CC(C)(C)NCC(O)COc1cccc2c1CC(O)C(O)C2 (configuration not stated) [NADOLOL] | 0 | 0 | 0 | 0 | 0 | 0 | 0 | 0 | 0 | 0 | 0 | 0 | 0 | 0 |
| Cc1[nH]cnc1CN1CCc2c(c3ccccc3n2C)C1=O [ALOSETRON] | 1 | 0 | 0 | 3 | 0 | 0 | 0 | 0 | 1 | 0 | 1 | 0 | 0 | 0 |
| CC(=O)N[C@H]1[C@H]([C@H](O)[C@H](O)CO)OC(C(=O)O)=C[C@@H]1N=C(N)N [ZANAMIVIR] | 0 | 0 | 0 | 0 | 0 | 0 | 0 | 0 | 0 | 0 | 0 | 0 | 0 | 0 |
| CO/N=C(\C(=O)N[C@@H]1C(=O)N2C(C(=O)O)=C(COC(C)=O)CS[C@H]12)c1csc(N)n1 [CEFOTAXIME] | 1 | 0 | 0 | 2 | 0 | 0 | 0 | 0 | 0 | 0 | 1 | 0 | 0 | 0 |
| Cc1ccc(S(=O)(=O)NC(=O)NN2CCCCCC2)cc1 [TOLAZAMIDE] | 1 | 0 | 0 | 1 | 0 | 0 | 0 | 0 | 0 | 0 | 0 | 0 | 0 | 0 |
